{
  "source": "ChEMBL document CHEMBL3124815",
  "about": "“Discovery of a selective kinase inhibitor (TAK-632) targeting pan-RAF inhibition: design, synthesis, and biological evaluation of C-7-substituted 1,3-benzothiazole derivatives” (J Med Chem, 2013)",
  "key": {"Homo sapiens": {"species": "Homo sapiens", "assay": "Selectivity factor, ratio of IC50 for VEGFR2 (unknown origin) to IC50 for N-terminal FLAG-tagged recombinant BRAF-V600E (unknown origin) expressed in baculovirus system"}, "Rattus norvegicus [1]": {"test_system": "Rattus norvegicus", "assay": "Toxicity in F344 nude rat xenografted with human HMVII cells expressing NRAS Q61K/BRAF G469V mutant assessed as body weight change at 9.7 mg/kg, po bid for 14 days", "format": "organism-based", "design": "dose 9.7 mg/kg, route oral", "conditions": "in vivo, 336 h"}, "[2]": {"assay": "Antitumor activity against human HMVII cells expressing NRAS Q61K/BRAF G469V mutant xenografted in F344 nude rat assessed as reduction in tumor size at 9.7 mg/kg, po bid for 14 days relative to control", "format": "functional, HMV-2"}, "[3]": {"assay": "Antitumor activity against human HMVII cells expressing NRAS Q61K/BRAF G469V mutant xenografted in F344 nude rat assessed as reduction in tumor size at 3.9 mg/kg, po bid for 14 days relative to control", "format": "functional, HMV-2"}, "Rattus norvegicus [4]": {"test_system": "Rattus norvegicus", "assay": "Toxicity in F344 nude rat xenografted with human A375 cells expressing BRAF V600E mutant assessed as body weight change at 1.9 mg/kg, po bid for 14 days relative to control", "format": "organism-based, A-375", "design": "dose 1.9 mg/kg, route oral", "conditions": "in vivo, 336 h"}, "A-375 [5]": {"test_system": "A-375", "assay": "Antitumor activity against human A375 cells expressing BRAF V600E mutant xenografted in F344 nude rat assessed as reduction in tumor size at 9.7 mg/kg, po bid for 14 days relative to control", "format": "functional"}, "[6]": {"assay": "Oral bioavailability in dog at 10 mg/kg", "format": "ADME, organism-based, Canis lupus familiaris", "conditions": "in vivo"}, "[7]": {"assay": "Oral bioavailability in rat at 25 mg/kg", "format": "ADME, organism-based", "conditions": "in vivo"}, "[8]": {"assay": "AUC (0 to 24 hrs) in dog at 10 mg/kg, po", "format": "ADME, organism-based, Canis lupus familiaris", "design": "time < 24 hr, dose 10 mg/kg, route oral", "conditions": "plasma"}, "[9]": {"assay": "AUC (0 to 24 hrs) in rat at 25 mg/kg, po", "format": "ADME, organism-based", "design": "time < 24 hr, dose 25 mg/kg, route oral", "conditions": "plasma"}, "[10]": {"assay": "Mean residence time in dog at 1 mg/kg, iv", "format": "ADME, organism-based, Canis lupus familiaris", "design": "dose 1 mg/kg, route intravenous", "conditions": "in vivo"}, "[11]": {"assay": "Mean residence time in rat at 25 mg/kg, po", "format": "ADME, organism-based", "design": "dose 25 mg/kg, route oral", "conditions": "in vivo"}, "[12]": {"assay": "Mean residence time in rat at 1 mg/kg, iv", "format": "ADME, organism-based", "design": "dose 1 mg/kg, route intravenous", "conditions": "in vivo"}, "[13]": {"assay": "Volume of distribution at steady state in dog at 1 mg/kg, iv", "format": "ADME, organism-based, Canis lupus familiaris", "design": "dose 1 mg/kg, route intravenous", "conditions": "in vivo, read-out: Vdss"}, "[14]": {"assay": "Total clearance in rat at 1 mg/kg, iv", "format": "ADME, organism-based", "design": "dose 1 mg/kg, route intravenous", "conditions": "in vivo"}, "[15]": {"assay": "Total clearance in dog at 1 mg/kg, iv", "format": "ADME, organism-based, Canis lupus familiaris", "design": "dose 1 mg/kg, route intravenous", "conditions": "in vivo"}, "[16]": {"assay": "Solubility of the compound in form of solid dispersion in phosphate buffer at pH 6.8", "format": "physicochemical"}, "A-375 [17]": {"test_system": "A-375", "assay": "Antiproliferative activity against human A375 cells assessed as growth inhibition after 72 hrs by chemi-luminescence cell viability assay", "format": "functional", "conditions": "A-375, 72 h"}, "[18]": {"assay": "Inhibition of NRASQ61k/BRAFG469V-mutant in human HMVII cells assessed as phosphorylation of ERK after 2 hrs by Western blotting analysis", "format": "cell-based"}, "[19]": {"assay": "Inhibition of NRASQ61k/BRAFG469V-mutant in human HMVII cells assessed as phosphorylation of MEK after 2 hrs by Western blotting analysis", "format": "cell-based"}, "[20]": {"target": "T1, Serine/threonine-protein kinase B-raf (Homo sapiens, UniProt P15056, V600E)", "assay": "Inhibition of BRAF V600E mutant in human A375 cells assessed as phosphorylation of MEK after 2 hrs by Western blotting analysis", "format": "cell-based, A-375"}, "[21]": {"target": "T1, Serine/threonine-protein kinase B-raf", "assay": "Inhibition of BRAF V600E mutant (unknown origin) compound preincubated for 1 hr in presence of 5 uM ATP"}, "[22]": {"target": "Serine/threonine-protein kinase B-raf (Homo sapiens, UniProt P15056)", "assay": "Binding affinity to BRAF (unknown origin) assessed as equilibrium dissociation constant by surface plasmon resonance analysis"}, "[23]": {"target": "Mitogen-activated protein kinase kinase kinase 1 (Homo sapiens, UniProt Q13233)", "sequence (Q13233 whole entry)": "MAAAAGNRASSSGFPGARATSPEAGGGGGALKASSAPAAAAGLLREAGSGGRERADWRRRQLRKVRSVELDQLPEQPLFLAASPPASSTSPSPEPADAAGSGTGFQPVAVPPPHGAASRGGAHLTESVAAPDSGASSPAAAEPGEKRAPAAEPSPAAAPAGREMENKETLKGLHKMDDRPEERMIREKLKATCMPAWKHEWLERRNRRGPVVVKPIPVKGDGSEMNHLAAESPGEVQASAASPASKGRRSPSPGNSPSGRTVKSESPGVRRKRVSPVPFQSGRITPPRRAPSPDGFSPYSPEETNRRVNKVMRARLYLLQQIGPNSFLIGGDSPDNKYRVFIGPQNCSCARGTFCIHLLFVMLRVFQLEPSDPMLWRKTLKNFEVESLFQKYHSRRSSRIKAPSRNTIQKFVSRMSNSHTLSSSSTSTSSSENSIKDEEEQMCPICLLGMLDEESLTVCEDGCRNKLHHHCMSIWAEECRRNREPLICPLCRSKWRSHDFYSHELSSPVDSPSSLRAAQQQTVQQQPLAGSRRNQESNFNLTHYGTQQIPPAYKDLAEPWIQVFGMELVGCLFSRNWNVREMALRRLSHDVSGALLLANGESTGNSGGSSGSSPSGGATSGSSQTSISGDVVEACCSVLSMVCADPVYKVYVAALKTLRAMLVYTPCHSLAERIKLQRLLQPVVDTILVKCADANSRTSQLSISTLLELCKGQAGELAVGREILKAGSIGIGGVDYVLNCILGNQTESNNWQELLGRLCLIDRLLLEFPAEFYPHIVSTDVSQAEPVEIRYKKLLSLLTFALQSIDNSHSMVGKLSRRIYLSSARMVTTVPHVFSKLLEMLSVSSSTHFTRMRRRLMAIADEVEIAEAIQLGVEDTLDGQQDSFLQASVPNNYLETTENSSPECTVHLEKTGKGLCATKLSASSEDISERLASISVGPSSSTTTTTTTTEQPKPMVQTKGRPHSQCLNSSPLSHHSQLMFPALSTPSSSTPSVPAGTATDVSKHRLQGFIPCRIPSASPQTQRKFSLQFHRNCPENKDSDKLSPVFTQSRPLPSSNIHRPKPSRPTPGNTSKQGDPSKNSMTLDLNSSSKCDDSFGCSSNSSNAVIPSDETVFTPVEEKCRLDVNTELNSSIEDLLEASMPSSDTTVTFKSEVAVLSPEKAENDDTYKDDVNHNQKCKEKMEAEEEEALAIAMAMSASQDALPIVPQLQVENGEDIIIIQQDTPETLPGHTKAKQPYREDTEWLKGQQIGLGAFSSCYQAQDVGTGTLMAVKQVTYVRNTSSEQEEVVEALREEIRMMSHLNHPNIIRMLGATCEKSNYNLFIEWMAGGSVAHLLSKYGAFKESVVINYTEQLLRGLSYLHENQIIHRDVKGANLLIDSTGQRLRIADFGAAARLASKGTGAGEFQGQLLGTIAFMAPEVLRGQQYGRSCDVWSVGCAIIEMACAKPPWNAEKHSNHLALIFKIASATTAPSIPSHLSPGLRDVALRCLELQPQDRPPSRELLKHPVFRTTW", "assay": "Inhibition of C-terminal FLAG-tagged MEKK1 (unknown origin) expressed in baculovirus system using MBP as substrate after 60 mins"}, "[24]": {"target": "Dual specificity mitogen-activated protein kinase kinase 1 (Homo sapiens, UniProt Q02750)", "sequence (Q02750 whole entry)": "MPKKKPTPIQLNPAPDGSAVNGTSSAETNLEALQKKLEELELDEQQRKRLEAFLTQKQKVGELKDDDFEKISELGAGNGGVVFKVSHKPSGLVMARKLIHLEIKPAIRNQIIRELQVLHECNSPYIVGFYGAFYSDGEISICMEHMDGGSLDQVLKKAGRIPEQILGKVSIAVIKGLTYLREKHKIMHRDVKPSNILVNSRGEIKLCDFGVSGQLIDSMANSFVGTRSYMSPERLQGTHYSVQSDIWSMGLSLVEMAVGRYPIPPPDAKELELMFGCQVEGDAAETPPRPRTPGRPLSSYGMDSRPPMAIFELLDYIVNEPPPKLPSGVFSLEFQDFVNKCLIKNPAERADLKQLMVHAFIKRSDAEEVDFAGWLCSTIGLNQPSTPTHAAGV", "assay": "Inhibition of N-terminal GST-tagged MEK1 (unknown origin) expressed in 293 cells using GST-ERK1(K71A) as substrate after 20 mins"}, "[25]": {"target": "Glycogen synthase kinase-3 beta (Homo sapiens, UniProt P49841)", "assay": "Inhibition of C-terminal FLAG-tagged GSK3beta (unknown origin) expressed in baculovirus system after 30 mins"}, "[26]": {"target": "Mitogen-activated protein kinase 14 (Homo sapiens, UniProt Q16539)", "sequence (Q16539 whole entry)": "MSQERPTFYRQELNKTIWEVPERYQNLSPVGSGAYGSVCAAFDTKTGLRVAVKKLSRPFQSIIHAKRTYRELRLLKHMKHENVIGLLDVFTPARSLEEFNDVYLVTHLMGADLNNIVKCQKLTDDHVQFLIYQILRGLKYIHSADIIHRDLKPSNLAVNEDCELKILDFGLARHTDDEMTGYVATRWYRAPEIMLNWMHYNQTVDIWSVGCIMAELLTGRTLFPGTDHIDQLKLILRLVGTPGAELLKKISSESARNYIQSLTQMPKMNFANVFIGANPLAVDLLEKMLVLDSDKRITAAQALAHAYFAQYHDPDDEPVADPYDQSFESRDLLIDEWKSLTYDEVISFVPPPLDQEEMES", "assay": "Inhibition of C-terminal FLAG-tagged p38 alpha (unknown origin) expressed in baculovirus system using MBP as substrate after 60 mins"}, "[27]": {"target": "Cyclin-dependent kinase 1/cyclin B1 (Homo sapiens, UniProt P06493)", "sequence (P06493 whole entry)": "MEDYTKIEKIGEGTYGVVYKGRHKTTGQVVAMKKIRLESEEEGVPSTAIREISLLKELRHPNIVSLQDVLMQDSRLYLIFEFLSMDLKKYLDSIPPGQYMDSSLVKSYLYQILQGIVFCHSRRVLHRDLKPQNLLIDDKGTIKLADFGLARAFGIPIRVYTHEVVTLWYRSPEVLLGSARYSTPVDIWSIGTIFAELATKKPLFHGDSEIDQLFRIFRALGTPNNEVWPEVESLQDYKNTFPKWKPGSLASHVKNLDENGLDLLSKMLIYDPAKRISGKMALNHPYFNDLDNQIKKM", "sequence (P14635 whole entry, further chain)": "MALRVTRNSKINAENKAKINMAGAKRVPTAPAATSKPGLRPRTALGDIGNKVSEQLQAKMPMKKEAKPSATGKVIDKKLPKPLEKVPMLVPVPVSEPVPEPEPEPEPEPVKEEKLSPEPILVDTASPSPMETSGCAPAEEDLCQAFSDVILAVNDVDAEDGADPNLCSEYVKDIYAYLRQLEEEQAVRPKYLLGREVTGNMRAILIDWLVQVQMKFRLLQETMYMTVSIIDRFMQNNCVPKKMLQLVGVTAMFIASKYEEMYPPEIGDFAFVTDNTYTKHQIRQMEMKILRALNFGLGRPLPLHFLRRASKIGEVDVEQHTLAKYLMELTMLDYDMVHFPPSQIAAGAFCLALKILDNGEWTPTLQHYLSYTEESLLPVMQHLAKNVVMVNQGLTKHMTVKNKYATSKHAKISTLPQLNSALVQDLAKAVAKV", "assay": "Inhibition of CDK1/CycB (unknown origin) using histone H1 as substrate after 20 mins", "format": "protein-complex assay"}, "[28]": {"target": "Mitogen-activated protein kinase 3 (Homo sapiens, UniProt P27361)", "sequence (P27361 whole entry)": "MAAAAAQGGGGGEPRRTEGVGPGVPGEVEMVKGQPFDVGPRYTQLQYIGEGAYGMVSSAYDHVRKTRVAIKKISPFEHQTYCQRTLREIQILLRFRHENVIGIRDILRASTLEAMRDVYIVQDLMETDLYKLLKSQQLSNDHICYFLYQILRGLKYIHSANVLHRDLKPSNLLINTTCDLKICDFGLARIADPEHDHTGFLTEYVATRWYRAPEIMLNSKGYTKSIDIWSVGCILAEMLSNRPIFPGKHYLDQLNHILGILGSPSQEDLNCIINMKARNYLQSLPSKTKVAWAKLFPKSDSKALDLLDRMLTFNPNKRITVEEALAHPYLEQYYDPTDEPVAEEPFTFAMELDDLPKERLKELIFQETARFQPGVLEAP", "assay": "Inhibition of C-terminal FLAG-tagged ERK1 expressed in baculovirus system (unknown origin) using MBP as substrate after 60 mins"}, "[29]": {"target": "Inhibitor of nuclear factor kappa-B kinase subunit beta (Homo sapiens, UniProt O14920)", "assay": "Inhibition of C-terminal FLAG-tagged IKK beta (unknown origin) expressed in baculovirus system using IkappaBalpha as substrate after 40 mins"}, "[30]": {"target": "Proto-oncogene tyrosine-protein kinase Src (Homo sapiens, UniProt P12931)", "sequence (P12931 2-536 limits assumed)": "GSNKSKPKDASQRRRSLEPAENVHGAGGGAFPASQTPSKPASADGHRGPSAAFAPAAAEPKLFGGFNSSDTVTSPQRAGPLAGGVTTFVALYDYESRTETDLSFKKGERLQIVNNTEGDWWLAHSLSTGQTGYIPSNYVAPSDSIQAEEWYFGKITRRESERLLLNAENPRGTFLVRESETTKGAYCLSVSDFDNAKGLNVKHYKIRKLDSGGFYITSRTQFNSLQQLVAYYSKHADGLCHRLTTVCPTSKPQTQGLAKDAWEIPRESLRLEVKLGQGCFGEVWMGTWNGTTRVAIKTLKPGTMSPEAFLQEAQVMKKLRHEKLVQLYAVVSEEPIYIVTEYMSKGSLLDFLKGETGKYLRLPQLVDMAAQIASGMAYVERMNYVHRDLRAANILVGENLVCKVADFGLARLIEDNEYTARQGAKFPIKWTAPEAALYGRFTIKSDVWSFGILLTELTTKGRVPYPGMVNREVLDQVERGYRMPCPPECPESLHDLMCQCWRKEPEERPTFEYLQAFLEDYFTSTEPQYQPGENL", "assay": "Inhibition of Src receptor (unknown origin) using biotinylated poly-Glu-Tyr (4:1) as substrate preincubated for 5 mins measured after 12 hrs"}, "[31]": {"target": "Mast/stem cell growth factor receptor Kit (Homo sapiens, UniProt P10721)", "assay": "Inhibition of c-Kit receptor (unknown origin) using biotinylated poly-Glu-Tyr (4:1) as substrate preincubated for 5 mins measured after 12 hrs"}, "[32]": {"target": "Epidermal growth factor receptor (Homo sapiens, UniProt P00533)", "assay": "Inhibition of N-terminal peptide (DYKDDDD)-tagged EGFR (unknown origin) expressed in baculovirus system using biotinylated poly-Glu-Tyr (4:1) as substrate preincubated for 5 mins measured after 12 hrs by scintillation counting"}, "[33]": {"target": "Platelet-derived growth factor receptor beta (Homo sapiens, UniProt P09619)", "sequence (P09619 whole entry)": "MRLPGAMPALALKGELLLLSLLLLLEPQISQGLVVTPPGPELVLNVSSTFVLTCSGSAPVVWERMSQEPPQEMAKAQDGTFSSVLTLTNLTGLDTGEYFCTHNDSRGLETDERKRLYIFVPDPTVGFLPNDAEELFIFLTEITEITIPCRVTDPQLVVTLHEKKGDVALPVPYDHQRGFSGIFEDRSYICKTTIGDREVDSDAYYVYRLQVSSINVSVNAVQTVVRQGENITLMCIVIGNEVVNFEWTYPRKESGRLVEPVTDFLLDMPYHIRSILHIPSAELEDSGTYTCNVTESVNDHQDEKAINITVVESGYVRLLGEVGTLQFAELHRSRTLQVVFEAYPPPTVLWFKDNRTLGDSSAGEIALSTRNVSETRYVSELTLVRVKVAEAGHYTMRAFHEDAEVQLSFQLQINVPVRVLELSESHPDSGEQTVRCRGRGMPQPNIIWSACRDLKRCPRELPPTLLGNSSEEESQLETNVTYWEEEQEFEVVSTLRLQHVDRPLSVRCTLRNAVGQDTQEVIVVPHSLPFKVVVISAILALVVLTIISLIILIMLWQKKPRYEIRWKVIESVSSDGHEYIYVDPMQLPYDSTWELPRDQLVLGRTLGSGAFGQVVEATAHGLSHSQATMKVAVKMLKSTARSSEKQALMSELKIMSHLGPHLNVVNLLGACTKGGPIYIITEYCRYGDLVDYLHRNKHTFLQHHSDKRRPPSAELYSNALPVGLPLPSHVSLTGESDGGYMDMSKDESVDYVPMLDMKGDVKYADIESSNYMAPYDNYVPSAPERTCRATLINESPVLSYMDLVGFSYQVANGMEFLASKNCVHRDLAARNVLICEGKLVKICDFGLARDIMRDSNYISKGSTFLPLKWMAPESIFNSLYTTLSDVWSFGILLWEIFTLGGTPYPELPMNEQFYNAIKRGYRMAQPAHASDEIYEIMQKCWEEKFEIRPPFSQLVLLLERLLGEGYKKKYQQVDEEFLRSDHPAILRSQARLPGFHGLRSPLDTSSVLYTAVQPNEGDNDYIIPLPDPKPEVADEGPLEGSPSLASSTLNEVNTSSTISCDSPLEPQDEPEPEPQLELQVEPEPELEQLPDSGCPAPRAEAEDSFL", "assay": "Inhibition of PDGFR beta (unknown origin) using biotinylated poly-Glu-Tyr (4:1) as substrate preincubated for 5 mins measured after 12 hrs"}, "[34]": {"target": "Fibroblast growth factor receptor 3 (Homo sapiens, UniProt P22607)", "assay": "Inhibition of FGFR3 (unknown origin) using biotinylated poly-Glu-Tyr (4:1) as substrate preincubated for 5 mins measured after 12 hrs"}, "[35]": {"target": "T1, Serine/threonine-protein kinase B-raf"}, "[36]": {"target": "RAF proto-oncogene serine/threonine-protein kinase (Homo sapiens, UniProt P04049)", "description": "Binding affinity to CRAF (unknown origin) assessed as dissociation half life by surface plasmon resonance analysis"}},
  "data": [
    {"compound": "N#Cc1c(Oc2ccc(F)c(NC(=O)Cc3cccc(C(F)(F)F)c3)c2)ccc2nc(NC(=O)C3CC3)sc12", "values": [
      {"measurement": "Ratio IC50", "setting": "Homo sapiens", "value": 67},
      {"measurement": "Activity", "setting": "Rattus norvegicus [1]", "value": 9.8, "unit": "g"},
      {"measurement": "T/C", "setting": "[2]", "value": 26, "unit": "%"},
      {"measurement": "T/C", "setting": "[3]", "value": 52, "unit": "%"},
      {"measurement": "Activity", "setting": "Rattus norvegicus [4]", "value": 9.3, "unit": "g"},
      {"measurement": "T/C", "setting": "A-375 [5]", "value": -2.1, "unit": "%"},
      {"measurement": "bioavailability", "setting": "[6]", "value": 108, "unit": "%"},
      {"measurement": "bioavailability", "setting": "[7]", "value": 51.7, "unit": "%"},
      {"measurement": "AUC(0-t) at 24 h", "setting": "[8]", "value": 15500, "unit": "ng·h/mL"},
      {"measurement": "AUC(0-t) at 24 h", "setting": "[9]", "value": 32500, "unit": "ng·h/mL"},
      {"measurement": "MRT", "setting": "[10]", "value": 2.23, "unit": "h"},
      {"measurement": "MRT", "setting": "[11]", "value": 6.27, "unit": "h"},
      {"measurement": "MRT", "setting": "[12]", "value": 4.69, "unit": "h"},
      {"measurement": "Vd", "setting": "[13]", "value": 1.57, "unit": "L/kg"},
      {"measurement": "clearance", "setting": "[14]", "value": 6.67, "unit": "mL/min/kg"},
      {"measurement": "clearance", "setting": "[15]", "value": 11.7, "unit": "mL/min/kg"},
      {"measurement": "solubility", "setting": "[16]", "value": 740, "unit": "µg/mL"},
      {"measurement": "GI50", "setting": "A-375 [17]", "value": 66, "unit": "nM"},
      {"measurement": "IC50", "setting": "[18]", "value": 50, "unit": "nM"},
      {"measurement": "IC50", "setting": "[19]", "value": 49, "unit": "nM"},
      {"measurement": "IC50", "setting": "[20]", "value": 12, "unit": "nM"},
      {"measurement": "IC50", "setting": "[21]", "value": 2.2, "unit": "nM"},
      {"measurement": "Kd", "setting": "[22]", "value": 1.6, "unit": "nM"},
      {"measurement": "IC50", "setting": "[23]", "value": "> 10000", "unit": "nM"},
      {"measurement": "IC50", "setting": "[24]", "value": 3700, "unit": "nM"},
      {"measurement": "IC50", "setting": "[25]", "value": 500, "unit": "nM"},
      {"measurement": "IC50", "setting": "[26]", "value": 600, "unit": "nM"},
      {"measurement": "IC50", "setting": "[27]", "value": 790, "unit": "nM"},
      {"measurement": "IC50", "setting": "[28]", "value": "> 10000", "unit": "nM"},
      {"measurement": "IC50", "setting": "[29]", "value": 3700, "unit": "nM"},
      {"measurement": "IC50", "setting": "[30]", "value": "> 10000", "unit": "nM"},
      {"measurement": "IC50", "setting": "[31]", "value": "> 10000", "unit": "nM"},
      {"measurement": "IC50", "setting": "[32]", "value": "> 10000", "unit": "nM"},
      {"measurement": "IC50", "setting": "[33]", "value": 120, "unit": "nM"},
      {"measurement": "IC50", "setting": "[34]", "value": 280, "unit": "nM"},
      {"measurement": "IC50", "setting": "[35]", "value": 15, "unit": "nM"},
      {"measurement": "T1/2", "setting": "[36]", "value": 2.15, "unit": "h"}
    ]}
  ]
}
